Assay results published in patent US20220347266A1, “METHOD AND MEDICINE FOR TREATING DEPRESSIVE DISORDERS” (QINGDAO PRIMEDICINE PHARMACEUTICAL CO., LTD., priority 2018, published 2022).
Where no end group is shown, it is not given here.

Assays:
C57 mice = experiment: Forced swim test (FST) of mice, behavioral despair model of depressive disorder; type: in vivo, mouse; conditions: for immobility time of forced swimming mice: vs vehicle, FIG. 1
Description: Among the behavioral despair models, forced swim test of mice/rats is the most common animal model of depressive disorder to evaluate the effect of antidepressants. In this model, animals are forced to swim in water in a limited space. After struggling for many times but failing to escape, the animals may stop swimming and begin floating without struggling to escape anymore. This immobility is considered as the manifestation of behavioral despair and depression. This model has good predictive validity for antidepressants.
By using ketamine metabolite HNK as a positive control medication, the effect of compound PMS-001 on depression-like behavior of C57 mice was investigated through forced swim test 1 hour and 24 hours after single medicinal intervention. […]; (SEQ ID NO: 3). Wherein the amino acid sequence YGRKKRRQRRR (SEQ ID NO: 2), also known as Tat peptide, is a carrier peptide, and can assist the polypeptide in penetration of the blood-brain barrier. […] However, it is unknown in the art whether a C-terminal polypeptide of GluR2 such as YKEGYNVYG (SEQ ID NO: 1) can be used in the treatment of depressive disorder, specifically major depressive disorder.
The experimental animals were 6-week-old male C57 mice obtained from Shanghai SLAC Laboratory Animal Co., Ltd, with body weight of […]. They were transported to the Animal Breeding Center of Shanghai Institute of Materia Medica, Chinese Academy of Sciences (Animal production license: SCXK9 [Shanghai] 2004-0002, use license: SYXK [Shanghai] 2003-0029), and allowed to acclimatize in animal facilities for more than 3 days, with 6 individuals per cage. Mice were housed at room temperature (23±0.2° C.), with a 12 h/12 h light/dark cycle. Before the behavioral test, animals were moved to the behavior testing room 2 hours in advance for acclimation to relieve tension. […]
24 hours before administration, each mouse was placed into a cylinder tank for acclimation in the water environment for 10 min. […] Mice were videotaped for 6 minutes since being placed into water, and the immobility time for the last 4 minutes was calculated due to the fact that most animals were very active in the first two minutes (the criteria for immobility: mice stop struggling, keep immobility and make small movements to balance their bodies or float in water). […]
All data analyses were performed with spss 22 data processing software. […] Data were expressed as Mean±SEM. *: p<0.05; **: p<0.01; ***: p<0.001.

AMPAR = conditions: from EP1,687,427B1; cited from earlier work

Row | Sequence | immobility time of forced swimming mice (C57 mice; 1 hour after administration, single 10 mg/kg intraperitoneal injection) | immobility time of forced swimming mice (C57 mice; 24 hours after administration, single 10 mg/kg intraperitoneal injection) | antidepressant effect compared to positive control HNK (C57 mice; same dose (10 mg/kg i.p.)) | onset of antidepressant effect after administration (C57 mice; single 10 mg/kg intraperitoneal injection) [h] | inhibition of NMDA-mediated excessive endocytosis of AMPAR (AMPAR)
1 | YGRKKRRQRRRYKEGYNVYG [PMS-001] | very significantly decrease | very significantly decrease | better rapid and lasting antidepressant effect | 1 | 
2 | YKEGYNVYG (Artificially synthesized GluR2-3Y peptide) |  |  |  |  | proved to inhibit
